Test results from BindingDB's records for patent US12545673 (TSD Life Sciences, 2026).

Target: Mitogen-activated protein kinase kinase kinase 9 (Homo sapiens, UniProt P80192)
Assay: Evaluation of Inhibitory Activity of Enzyme Units

Mitogen-activated protein kinase kinase kinase 9, sequence (P80192 whole entry): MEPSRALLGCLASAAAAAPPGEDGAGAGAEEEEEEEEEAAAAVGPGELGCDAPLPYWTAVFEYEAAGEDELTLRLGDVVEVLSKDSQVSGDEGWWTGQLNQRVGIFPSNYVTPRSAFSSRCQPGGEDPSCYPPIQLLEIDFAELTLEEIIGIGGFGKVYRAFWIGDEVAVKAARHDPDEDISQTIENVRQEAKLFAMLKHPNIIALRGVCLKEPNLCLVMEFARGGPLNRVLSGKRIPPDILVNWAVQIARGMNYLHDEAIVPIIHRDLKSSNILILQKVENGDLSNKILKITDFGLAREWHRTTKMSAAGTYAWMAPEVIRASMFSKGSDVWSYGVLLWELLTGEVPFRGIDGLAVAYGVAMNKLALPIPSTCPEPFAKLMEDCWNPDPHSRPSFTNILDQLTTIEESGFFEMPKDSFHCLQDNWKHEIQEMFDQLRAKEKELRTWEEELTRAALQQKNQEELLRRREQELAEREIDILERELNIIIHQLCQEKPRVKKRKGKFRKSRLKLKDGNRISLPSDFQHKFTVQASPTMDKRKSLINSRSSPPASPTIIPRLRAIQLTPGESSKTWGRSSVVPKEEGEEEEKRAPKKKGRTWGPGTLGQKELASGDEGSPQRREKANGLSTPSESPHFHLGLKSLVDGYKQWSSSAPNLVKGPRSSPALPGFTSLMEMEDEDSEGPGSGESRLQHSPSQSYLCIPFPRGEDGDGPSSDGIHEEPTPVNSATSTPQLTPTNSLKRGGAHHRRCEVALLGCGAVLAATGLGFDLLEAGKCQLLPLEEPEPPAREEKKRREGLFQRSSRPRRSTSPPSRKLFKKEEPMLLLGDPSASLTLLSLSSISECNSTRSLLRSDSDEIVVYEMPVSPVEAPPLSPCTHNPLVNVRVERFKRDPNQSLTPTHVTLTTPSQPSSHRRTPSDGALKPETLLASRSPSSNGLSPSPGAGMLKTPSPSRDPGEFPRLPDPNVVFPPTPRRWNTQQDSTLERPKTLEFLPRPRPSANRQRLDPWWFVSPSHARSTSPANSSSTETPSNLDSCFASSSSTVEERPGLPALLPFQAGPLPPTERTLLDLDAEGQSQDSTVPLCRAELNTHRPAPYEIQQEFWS

Compound: CCS(=O)(=O)N1CC[C@H](Nc2c(Br)cnc3nc(-c4cc(C)n(-c5ccc(OCCN6CCOCC6)cc5)c4C)[nH]c23)C1 [US12545673, Example 4]
- IC50: 56 nM
